Data set [1] relates to male ddY mice. Nature of the data set: Acute toxicity. To be noted: 5 days. Type of data set: in vivo. As to the method:
Groups of 5 male ddY mice were used. […] Similarly, the mice were orally administered with 1000 mg/kg of the compound, but they survived for 5 days after the administration.

In data set [2] the target is benzodiazepine (BZP) receptors. The data set is described as follows: Displacement ability for benzodiazepine receptor (tritiated diazepam binding, crude synaptosome fraction of cerebral cortex). On the set-up: species or system Wistar rats. The following applies: displacement of tritiated diazepam (2 nM), 0°C, 20 minutes, rat cerebral cortex synaptosome fraction. The method, then:
The test of specific binding to benzodiazepine (BZP) receptors was carried out according to the method described in Life Science, vol. 20, 2101 (1977).
The crude synaptosome fraction isolated from the cerebral cortex of male Wistar rats aged 9-10 weeks, was suspended in 50 mM Trishydrochloric acid buffer (pH 7.4) containing 120 mM sodium chloride and 5 mM potassium chloride. The suspension was used for the following experiment.
The test compound in several different concentrations and tritiated diazepam (in final concentration of 2 nM) were added to the synaptosomal suspension, and the mixture was incubated at 0°C for 20 minutes. The suspension was filtered with Whatman GF/B (Trademark) glassfiber filter. After the filter was washed with the above-mentioned buffer, the radio activity left on the filter was measured with a liquid scintillation counter.
The specific binding was determined by subtracting the binding in the presence of 10⁻⁶ M unlabelled diazepam from total binding.
The affinity for benzodiazepine receptors of the compound of the present invention is evaluated from its displacement ability for tritiated diazepam at its binding site, which is represented by Ki value (nM).

Data set [3] has as its system GABA-induced chloride current. The data set is classed as cell-based, American bullfrogs. The following applies: dorsal root ganglion neurons. As to the method:
The test was carried out according to the method of Akaike et al. reported in Journal of Physiology (London), 379, 171 (1986) using sensory neurons isolated from dosal root ganglion of American bullfrogs. Neurons were voltage-clamped at a holding membrane potential of -50 mV with a single-electrode voltage-clamp system. Test compounds were applied by using a concentration-clamp technique. When the peak Cl⁻ current (ICl) elicited by 3 x 10⁻⁶ M GABA alone was presented as 1, the augumentive ICl of the test compounds in the presence of 3 x 10⁻⁶ M GABA was measured. The results were presented as relative ICl values in Table 1.

The structures appear in SMILES notation.

Consider `O=C(c1ccccc1)c1cc2c(s1)CCC1CC(=O)N(c3ccc(Cl)cc3)N=C21` (stereo not shown) [Example 16, 8-benzoyl-2-(4-chlorophenyl)-4,4a,5,6-tetrahydrothieno[2,3-h]cinnolin-3(2H)-one], for which the survival after administration entry was “all mice survived” in data set [1] (300 mg/kg intraperitoneally, groups of 5 male ddY mice) and “survived” in data set [1] (1000 mg/kg orally, male ddY mice).

As for `CC(=O)c1cc2c(s1)CCCC1CC(=O)N(c3ccc(Cl)cc3)N=C21` (stereo not shown) [Example 18, 9-acetyl-2-(4-chlorophenyl)-2,4,4a,5,6,7-hexahydro-3H-thieno[2',3':6,7]cyclohepta[1,2-c]pyridazin-3-one], in data set [2], affinity was put at a Ki of 4.2 nM. Further, the “Relative ICl” value in data set [3] turned out to be 1.38.

Usually Ki stands for a measure of affinity in units of concentration, obtained from inhibition or displacement. Low values mean a stronger hold on the target, high ones a looser hold on the target.

These data come from EP0601184A1, “FUSED PYRIDAZINE COMPOUND AND PHARMACEUTICAL USE THEREOF” (YOSHITOMI PHARMACEUTICAL INDUSTRIES, LTD., priority 1991, dated 1993).
